The NIST ThermoML archive (doi:10.1021/je8009418)
Numbers after ± are expanded uncertainties.

Details: Liquid; for speed of sound: Pulse-echo method; for mass density: Vibrating tube method

CCC(C)(C)O [2-methylbutan-2-ol]
Details | mass density [kg/m3] | speed of sound [m/s]
292.86 K, 15200 kPa | – | 1290.8 ± 2.3
292.86 K, 30390 kPa | – | 1369.7 ± 2.4
292.86 K, 45590 kPa | – | 1440.9 ± 2.4
292.86 K, 60790 kPa | – | 1506 ± 2.5
292.86 K, 75990 kPa | – | 1566.1 ± 2.5
292.86 K, 91180 kPa | – | 1623.1 ± 2.6
292.86 K, 101320 kPa | – | 1658.5 ± 2.6
292.9 K, 100 kPa | – | 1196.7 ± 1.6
293.15 K, 101.33 kPa | 808.891 ± 0.24 | –
298.15 K, 101.33 kPa | 804.3 ± 0.24 | 1177.8 ± 1.6
298.15 K, 15200 kPa | – | 1274.2 ± 2.4
298.15 K, 30390 kPa | – | 1354.4 ± 2.4
298.15 K, 45590 kPa | – | 1426.3 ± 2.4
298.15 K, 60790 kPa | – | 1491.5 ± 2.5
298.15 K, 75990 kPa | – | 1551.9 ± 2.5
298.15 K, 91180 kPa | – | 1608.7 ± 2.6
298.15 K, 101320 kPa | – | 1644.4 ± 2.6
298.17 K, 100 kPa | – | 1177.8 ± 1.6
303.13 K, 30390 kPa | – | 1339.7 ± 2.4
303.13 K, 45590 kPa | – | 1412.3 ± 2.4
303.13 K, 91180 kPa | – | 1595.6 ± 2.6
303.13 K, 101320 kPa | – | 1631.4 ± 2.6
303.14 K, 15200 kPa | – | 1258.5 ± 2.4
303.14 K, 60790 kPa | – | 1478.1 ± 2.5
303.14 K, 75990 kPa | – | 1538.6 ± 2.5
303.15 K, 100 kPa | – | 1159.8 ± 1.6
303.16 K, 101.33 kPa | 799.66 ± 0.24 | –
308.12 K, 100 kPa | – | 1141.9 ± 1.6
308.12 K, 15200 kPa | – | 1242.6 ± 2.4
308.12 K, 30390 kPa | – | 1324.9 ± 2.4
308.12 K, 45590 kPa | – | 1398 ± 2.4
308.12 K, 60790 kPa | – | 1464.7 ± 2.5
308.12 K, 75990 kPa | – | 1525.6 ± 2.5
308.12 K, 91180 kPa | – | 1582.6 ± 2.6
308.12 K, 101320 kPa | – | 1619 ± 2.6
308.16 K, 101.33 kPa | 794.954 ± 0.24 | –
313.1 K, 100 kPa | – | 1124 ± 1.6
313.1 K, 45590 kPa | – | 1384.1 ± 2.4
313.1 K, 60790 kPa | – | 1451.2 ± 2.5
313.1 K, 75990 kPa | – | 1512.8 ± 2.5
313.1 K, 91180 kPa | – | 1569.9 ± 2.6
313.11 K, 15200 kPa | – | 1226.6 ± 2.4
313.11 K, 30390 kPa | – | 1310.1 ± 2.4
313.11 K, 101320 kPa | – | 1606.2 ± 2.6
313.15 K, 101.33 kPa | 790.176 ± 0.24 | –
318.15 K, 101.33 kPa | 785.312 ± 0.24 | –
318.18 K, 15200 kPa | – | 1210.4 ± 2.4
318.18 K, 60790 kPa | – | 1437.9 ± 2.5
318.18 K, 75990 kPa | – | 1499.8 ± 2.5
318.18 K, 101320 kPa | – | 1593.9 ± 2.6
318.19 K, 30390 kPa | – | 1295.2 ± 2.4
318.19 K, 45590 kPa | – | 1370.1 ± 2.4
318.19 K, 91180 kPa | – | 1557.2 ± 2.6
318.29 K, 100 kPa | – | 1105.3 ± 1.6

OC1CCCC1 [cyclopentanol]
Details | mass density [kg/m3] | speed of sound [m/s]
292.85 K, 15200 kPa | – | 1519.5 ± 2.4
292.85 K, 30390 kPa | – | 1576.3 ± 2.4
292.85 K, 45590 kPa | – | 1629.1 ± 2.4
292.85 K, 60790 kPa | – | 1677.8 ± 2.4
292.85 K, 75990 kPa | – | 1723.9 ± 2.5
292.85 K, 91180 kPa | – | 1767.2 ± 2.5
292.85 K, 101320 kPa | – | 1795 ± 2.5
292.86 K, 100 kPa | – | 1454.4 ± 1.6
293.15 K, 101.33 kPa | 946.792 ± 0.23 | –
298.14 K, 15200 kPa | – | 1500.4 ± 2.4
298.14 K, 30390 kPa | – | 1557.8 ± 2.4
298.14 K, 45590 kPa | – | 1611.5 ± 2.4
298.14 K, 60790 kPa | – | 1661 ± 2.4
298.14 K, 75990 kPa | – | 1707.2 ± 2.5
298.14 K, 91180 kPa | – | 1751.2 ± 2.5
298.14 K, 101320 kPa | – | 1779.3 ± 2.5
298.15 K, 101.33 kPa | 942.856 ± 0.23 | 1435.1 ± 1.6
298.17 K, 100 kPa | – | 1435 ± 1.6
303.12 K, 15200 kPa | – | 1482.2 ± 2.4
303.12 K, 30390 kPa | – | 1540.4 ± 2.4
303.12 K, 45590 kPa | – | 1595.1 ± 2.4
303.12 K, 60790 kPa | – | 1645.6 ± 2.4
303.12 K, 75990 kPa | – | 1692.6 ± 2.5
303.12 K, 91180 kPa | – | 1737.2 ± 2.5
303.12 K, 101320 kPa | – | 1765.5 ± 2.5
303.15 K, 100 kPa | – | 1416.9 ± 1.6
303.16 K, 101.33 kPa | 938.874 ± 0.23 | –
308.11 K, 15200 kPa | – | 1464.8 ± 2.4
308.11 K, 30390 kPa | – | 1524.5 ± 2.4
308.11 K, 45590 kPa | – | 1579.4 ± 2.4
308.11 K, 60790 kPa | – | 1630.6 ± 2.4
308.11 K, 75990 kPa | – | 1678 ± 2.5
308.11 K, 101320 kPa | – | 1751.6 ± 2.5
308.12 K, 91180 kPa | – | 1723 ± 2.5
308.13 K, 100 kPa | – | 1398.7 ± 1.6
308.15 K, 101.33 kPa | 934.843 ± 0.23 | –
313.09 K, 15200 kPa | – | 1447.6 ± 2.4
313.09 K, 30390 kPa | – | 1508.3 ± 2.4
313.09 K, 45590 kPa | – | 1564 ± 2.4
313.09 K, 60790 kPa | – | 1616.1 ± 2.4
313.09 K, 75990 kPa | – | 1664.1 ± 2.5
313.09 K, 91180 kPa | – | 1709.5 ± 2.5
313.09 K, 101320 kPa | – | 1738.6 ± 2.5
313.12 K, 100 kPa | – | 1380.6 ± 1.6
313.15 K, 101.33 kPa | 930.754 ± 0.23 | –
318.15 K, 101.33 kPa | 926.613 ± 0.24 | –
318.19 K, 15200 kPa | – | 1430.8 ± 2.4
318.19 K, 45590 kPa | – | 1548.6 ± 2.4
318.19 K, 60790 kPa | – | 1601.4 ± 2.4
318.19 K, 75990 kPa | – | 1650.3 ± 2.5
318.19 K, 101320 kPa | – | 1725.3 ± 2.5
318.2 K, 30390 kPa | – | 1492.4 ± 2.4
318.2 K, 91180 kPa | – | 1695.8 ± 2.5
318.29 K, 100 kPa | – | 1361.8 ± 1.6

CCCCCO [pentan-1-ol]
Details | mass density [kg/m3] | speed of sound [m/s]
292.81 K, 100 kPa | – | 1293.9 ± 1.4
292.88 K, 76010 kPa | – | 1611.2 ± 2.4
292.88 K, 91210 kPa | – | 1660 ± 2.4
292.88 K, 101330 kPa | – | 1691.4 ± 2.5
292.91 K, 45590 kPa | – | 1501.6 ± 2.3
292.91 K, 60810 kPa | – | 1558.3 ± 2.3
292.95 K, 15200 kPa | – | 1371.5 ± 2.2
292.96 K, 30400 kPa | – | 1439.7 ± 2.3
293.15 K, 101.33 kPa | 814.5 ± 0.19 | –
297.93 K, 30400 kPa | – | 1424.8 ± 2.3
297.93 K, 45600 kPa | – | 1487.1 ± 2.3
297.93 K, 60800 kPa | – | 1544.3 ± 2.3
297.93 K, 75990 kPa | – | 1597.6 ± 2.4
297.93 K, 91190 kPa | – | 1647.3 ± 2.4
297.93 K, 101340 kPa | – | 1678.7 ± 2.5
297.94 K, 15200 kPa | – | 1355.5 ± 2.2
298.15 K, 101.33 kPa | 810.84 ± 0.19 | 1275.2 ± 1.4
298.18 K, 100 kPa | – | 1275.1 ± 1.4
303.05 K, 45600 kPa | – | 1472.8 ± 2.3
303.06 K, 15200 kPa | – | 1339.3 ± 2.2
303.06 K, 30410 kPa | – | 1409.7 ± 2.3
303.06 K, 91180 kPa | – | 1634.6 ± 2.4
303.06 K, 101330 kPa | – | 1666.3 ± 2.5
303.1 K, 60790 kPa | – | 1530.6 ± 2.3
303.1 K, 76000 kPa | – | 1584.1 ± 2.4
303.15 K, 100 kPa | – | 1258 ± 1.4
303.15 K, 101.33 kPa | 807.155 ± 0.19 | –
308.04 K, 45600 kPa | – | 1459 ± 2.3
308.05 K, 76000 kPa | – | 1571.6 ± 2.4
308.06 K, 60800 kPa | – | 1517.5 ± 2.3
308.06 K, 91210 kPa | – | 1622.5 ± 2.4
308.06 K, 101330 kPa | – | 1654.2 ± 2.5
308.08 K, 15200 kPa | – | 1323.5 ± 2.2
308.08 K, 30400 kPa | – | 1394.8 ± 2.3
308.13 K, 100 kPa | – | 1240.9 ± 1.4
308.15 K, 101.33 kPa | 803.442 ± 0.19 | –
313.02 K, 101340 kPa | – | 1642.9 ± 2.5
313.03 K, 30400 kPa | – | 1380.7 ± 2.3
313.03 K, 60790 kPa | – | 1504.8 ± 2.3
313.03 K, 75990 kPa | – | 1559.2 ± 2.4
313.03 K, 91190 kPa | – | 1610.7 ± 2.4
313.04 K, 15210 kPa | – | 1308.5 ± 2.2
313.05 K, 45600 kPa | – | 1445.5 ± 2.3
313.11 K, 100 kPa | – | 1224.1 ± 1.4
313.15 K, 101.33 kPa | 799.705 ± 0.19 | –
318.15 K, 101.33 kPa | 795.912 ± 0.19 | –
318.49 K, 76000 kPa | – | 1546.4 ± 2.4
318.49 K, 91200 kPa | – | 1598.1 ± 2.4
318.5 K, 60800 kPa | – | 1491.2 ± 2.3
318.51 K, 45590 kPa | – | 1431.3 ± 2.3
318.51 K, 101330 kPa | – | 1630.8 ± 2.5
318.52 K, 15200 kPa | – | 1292 ± 2.2
318.52 K, 30400 kPa | – | 1365.4 ± 2.3
318.68 K, 100 kPa | – | 1205.5 ± 1.4
